From patent US9376436B2, “2-(pyridin-2yl)-1, 7-diaza-spiro [4.4] nonane-6-one compound as voltage-gated sodium channels modulators” (CONVERGENCE PHARMACEUTICALS LIMITED, priority 2011, dated 2016) come the findings set out here.

Structures can show the parent of a compound that is named as a salt. Where two headings read alike, the source gives them in different places.

This assay concerns the target T1, hNaV1.7 (Homo sapiens, UniProt Q15858).
T1 construct: expressed in transfected cells; host or cells: HEK293
Nature of the assay: QPatch NaV1.7 assay (whole-cell patch clamp, QPatch16x). Type of assay: cell-based. Conditions: HEK293-hNaV1.7 cells. Summed up:
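HEK293 cells expressing hNaV1.7 recorded by automated whole-cell patch clamp (CsF internal, pH 7.3). Peak currents from 20 ms steps to 0 mV measured at holding potentials of −90 mV and V1/2 SSI; four-point cumulative concentrations, 120 s each, Hill fits gave pIC50 at each potential.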

Setting [1] is: holding voltage V1/2 SSI (half of channels inactivated), read-out: QP Nav1.7 SSI vhalf pIC50 (converted).
The mark [2] stands for this setting: holding voltage −90 mV (most channels closed), read-out: QP Nav1.7 −90 mV pIC50 (converted).

T1 sequence (Q15858 whole entry): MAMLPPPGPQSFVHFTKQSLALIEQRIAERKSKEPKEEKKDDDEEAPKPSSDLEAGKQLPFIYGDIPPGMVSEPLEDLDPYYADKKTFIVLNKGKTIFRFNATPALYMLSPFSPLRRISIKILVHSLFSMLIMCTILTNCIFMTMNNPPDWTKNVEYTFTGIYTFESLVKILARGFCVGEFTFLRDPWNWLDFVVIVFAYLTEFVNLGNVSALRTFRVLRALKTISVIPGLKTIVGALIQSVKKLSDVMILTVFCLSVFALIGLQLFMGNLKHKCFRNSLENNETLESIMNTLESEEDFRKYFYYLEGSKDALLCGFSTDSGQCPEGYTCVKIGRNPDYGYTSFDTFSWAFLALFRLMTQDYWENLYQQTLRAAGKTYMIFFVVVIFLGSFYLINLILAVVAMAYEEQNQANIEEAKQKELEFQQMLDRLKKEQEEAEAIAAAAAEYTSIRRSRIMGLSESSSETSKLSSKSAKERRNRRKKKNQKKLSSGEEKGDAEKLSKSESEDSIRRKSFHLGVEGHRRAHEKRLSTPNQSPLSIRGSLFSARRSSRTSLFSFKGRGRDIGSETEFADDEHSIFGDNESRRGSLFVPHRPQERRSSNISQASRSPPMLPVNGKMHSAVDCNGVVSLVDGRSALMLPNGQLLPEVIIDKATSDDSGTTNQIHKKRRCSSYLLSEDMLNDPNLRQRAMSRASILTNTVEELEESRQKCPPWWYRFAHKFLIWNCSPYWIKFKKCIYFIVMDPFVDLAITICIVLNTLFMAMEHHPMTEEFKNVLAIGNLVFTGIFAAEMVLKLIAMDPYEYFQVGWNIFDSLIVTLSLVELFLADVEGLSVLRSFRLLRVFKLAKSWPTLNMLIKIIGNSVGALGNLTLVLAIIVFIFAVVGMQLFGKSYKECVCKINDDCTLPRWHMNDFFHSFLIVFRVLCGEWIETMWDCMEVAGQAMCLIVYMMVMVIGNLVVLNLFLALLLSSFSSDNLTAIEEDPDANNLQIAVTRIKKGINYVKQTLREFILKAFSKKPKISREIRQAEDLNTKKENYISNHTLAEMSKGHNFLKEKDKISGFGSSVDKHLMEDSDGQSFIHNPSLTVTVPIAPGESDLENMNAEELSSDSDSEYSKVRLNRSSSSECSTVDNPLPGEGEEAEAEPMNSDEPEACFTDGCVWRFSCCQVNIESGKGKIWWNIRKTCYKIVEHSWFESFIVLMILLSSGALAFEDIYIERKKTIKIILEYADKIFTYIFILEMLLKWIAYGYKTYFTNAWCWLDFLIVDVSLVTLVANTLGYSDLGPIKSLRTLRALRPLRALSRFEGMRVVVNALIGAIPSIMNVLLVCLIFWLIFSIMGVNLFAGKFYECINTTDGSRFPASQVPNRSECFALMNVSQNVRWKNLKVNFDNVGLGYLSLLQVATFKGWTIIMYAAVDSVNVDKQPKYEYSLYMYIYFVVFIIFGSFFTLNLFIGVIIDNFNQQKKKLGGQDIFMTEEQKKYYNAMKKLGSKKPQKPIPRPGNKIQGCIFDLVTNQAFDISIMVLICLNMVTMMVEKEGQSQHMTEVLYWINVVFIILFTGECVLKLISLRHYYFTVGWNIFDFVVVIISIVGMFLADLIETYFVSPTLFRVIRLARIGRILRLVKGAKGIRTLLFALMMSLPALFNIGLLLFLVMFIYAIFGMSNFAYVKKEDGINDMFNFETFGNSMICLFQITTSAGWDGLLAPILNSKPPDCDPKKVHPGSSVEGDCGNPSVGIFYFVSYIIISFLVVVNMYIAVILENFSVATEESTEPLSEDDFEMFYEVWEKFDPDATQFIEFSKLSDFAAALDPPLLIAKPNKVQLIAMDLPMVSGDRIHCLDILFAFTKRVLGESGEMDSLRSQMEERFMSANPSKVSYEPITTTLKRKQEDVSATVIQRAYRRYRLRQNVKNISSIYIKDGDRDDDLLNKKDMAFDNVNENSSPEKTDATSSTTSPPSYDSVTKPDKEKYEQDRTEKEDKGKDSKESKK

On to `Cc1cc(-c2ccc(C(F)(F)F)cc2)cc([C@H]2CC[C@@]3(CCNC3=O)N2C)n1` [Example 229, (2R,5S)-1-Methyl-2-[6-methyl-4-[4-(trifluoromethyl)phenyl]-2-pyridyl]-1,7-diazaspiro[4.4]nonan-6-one hydrochloride], for which the IC50 is, setting by setting: under setting [1], 3.16 µM; under setting [2], 63.1 µM.

On to `CN1[C@H](c2cc(-c3ccc(C(F)(F)F)cc3)ccn2)CC[C@]12CCCNC2=O` [Example 230, hydrochloride], for which the IC50 is, setting by setting: under setting [1], 1.26 µM; under setting [2], 25.1 µM.

Take `CCOc1ccc(F)c(-c2cc(C)nc([C@@H]3CC[C@]4(CCN(C)C4=O)N3C)c2)c1` [Example 231, (2S,5R)-2-[4-(5-Ethoxy-2-fluoro-phenyl)-6-methyl-2-pyridyl]-1,7-dimethyl-1,7-diazaspiro-[4.4]nonan-6-one hydrochloride]: the IC50 is 1 µM under setting [1] and 12.6 µM under setting [2].

In the case of `CN1[C@@H](c2cc(-c3ccc(C(F)(F)F)cc3)ccn2)CC[C@]12CCCNC2=O` [Example 232, hydrochloride], the IC50 under setting [1] is 1.26 µM and the IC50 under setting [2] is 7.94 µM.

With `CCN1[C@H](c2cc(-c3ccc(C(F)(F)F)cc3)ccn2)CC[C@]12CCCNC2=O` [Example 233, hydrochloride], the IC50 reads like this: under setting [1], 12.6 µM; under setting [2], 31.6 µM.

`CCOc1ccc(F)c(-c2cc(C(C)C)nc([C@H]3CC[C@]4(CCN(C)C4=O)N3)c2)c1` [Example 234, (2R,5R)-2-[4-(5-Ethoxy-2-fluoro-phenyl)-6-isopropyl-2-pyridyl]-7-methyl-1,7-diazaspiro[4.4]nonan-6-one hydrochloride]: the IC50 under setting [1] is 0.0501 µM and the IC50 under setting [2] is 1 µM.

Regarding `CCOc1ccc(F)c(-c2cc(C(C)C)nc([C@@H]3CC[C@]4(CCN(C)C4=O)N3)c2)c1` [Example 235, (2S,5R)-2-[4-(5-Ethoxy-2-fluoro-phenyl)-6-isopropyl-2-pyridyl]-7-methyl-1,7-diazaspiro[4.4]nonan-6-one hydrochloride], the IC50 was 2 µM under setting [1] and 15.8 µM under setting [2].

With `CCOc1ccc(F)c(-c2cc(C(C)C)nc([C@@H]3CC[C@@]4(CCN(C)C4=O)N3)c2)c1` [Example 236, (2S,5S)-2-[4-(5-Ethoxy-2-fluoro-phenyl)-6-isopropyl-2-pyridyl]-7-methyl-1,7-diazaspiro[4.4]nonan-6-one hydrochloride], the IC50 was 0.631 µM under setting [1] and 6.31 µM under setting [2].

Turning to `CCOc1ccc(F)c(-c2cc(C(C)C)nc([C@H]3CC[C@@]4(CCN(C)C4=O)N3)c2)c1` [Example 237, (2R,5S)-2-[4-(5-Ethoxy-2-fluoro-phenyl)-6-isopropyl-2-pyridyl]-7-methyl-1,7-diazaspiro[4.4]nonan-6-one hydrochloride], the IC50 is 0.316 µM under setting [1] and 2.51 µM under setting [2].

Take `CCOc1ccc(F)c(-c2cc([C@H]3CC[C@@]4(CCN(C)C4=O)N3)ncc2CC)c1` [Example 241, (2R,5S)-2-[4-(5-Ethoxy-2-fluoro-phenyl)-5-ethyl-2-pyridyl]-7-methyl-1,7-diazaspiro[4.4]nonan-6-one hydrochloride]: the IC50 reads like this: under setting [1], 15.8 µM; under setting [2], 100 µM.

With `CCOc1ccc(F)c(-c2cc([C@@H]3CC[C@]4(CCN(C)C4=O)N3)ncc2CC)c1` [Example 242, (2S,5R)-2-[4-(5-Ethoxy-2-fluoro-phenyl)-5-ethyl-2-pyridyl]-7-methyl-1,7-diazaspiro[4.4]nonan-6-one hydrochloride], the IC50 was 20 µM under setting [1] and 100 µM under setting [2].

`CCOc1ccc(F)c(-c2ccnc([C@H]3CC[C@]4(CC[C@H](C)NC4=O)N3)c2)c1` [Example 243, hydrochloride]: the IC50 is, setting by setting: under setting [1], 1.26 µM; under setting [2], 15.8 µM.

`CCOc1ccc(F)c(-c2ccnc([C@@H]3CC[C@]4(CC[C@H](C)NC4=O)N3)c2)c1` [Example 244, hydrochloride]: the IC50 by setting is: under setting [1], 3.16 µM; under setting [2], 39.8 µM.

For the compound `CCOc1ccc(F)c(-c2ccnc([C@H]3CC[C@@]4(CC[C@H](C)NC4=O)N3)c2)c1` [Example 246, hydrochloride], the IC50 was 1 µM under setting [1] and 15.8 µM under setting [2].

As to `CCOc1ccc(F)c(-c2cc(OC)nc([C@@H]3CC[C@@]4(CCN(C)C4=O)N3)c2)c1` [Example 249, (2S,5S)-2-[4-(5-Ethoxy-2-fluoro-phenyl)-6-methoxy-2-pyridyl]-7-methyl-1,7-diazaspiro[4.4]nonan-6-one hydrochloride], the IC50 is 1.26 µM under setting [1] and 15.8 µM under setting [2].

As to `CCOc1ccc(F)c(-c2cc(OC)nc([C@H]3CC[C@@]4(CCN(C)C4=O)N3)c2)c1` [Example 250, (2R,5S)-2-[4-(5-Ethoxy-2-fluoro-phenyl)-6-methoxy-2-pyridyl]-7-methyl-1,7-diazaspiro[4.4]nonan-6-one hydrochloride], the IC50 under setting [1] is 1.26 µM and the IC50 under setting [2] is 20 µM.

In the case of `CN1CC[C@@]2(CC[C@H](c3cc(-c4cc(OCCF)ccc4F)ccn3)N2)C1=O` [Example 251, (2R,5S)-2-[4-[2-Fluoro-5-(2-fluoroethoxyl)phenyl]-2-pyridyl]-7-methyl-1,7-diazaspiro[4.4]nonan-6-one hydrochloride], the IC50 is, setting by setting: under setting [1], 39.8 µM; under setting [2], 398 µM.

With `CN1CC[C@@]2(CC[C@H](c3cc(-c4cc(OCC(F)F)ccc4F)ccn3)N2)C1=O` [Example 252, (2R,5S)-2-[4-[5-(2,2-Difluoroethoxy)-2-fluoro-phenyl]-2-pyridyl]-7-methyl-1,7-diazaspiro[4.4]nonan-6-one hydrochloride], the IC50 under setting [1] is 12.6 µM and the IC50 under setting [2] was 79.4 µM.

As for `CC(C)COc1ccc(F)c(-c2ccnc([C@H]3CC[C@@]4(CCN(C)C4=O)N3)c2)c1` [Example 253, (2R,5S)-2-[4-(2-Fluoro-5-isobutoxy-phenyl)-2-pyridyl]-7-methyl-1,7-diazaspiro[4.4]nonan-6-one hydrochloride], the IC50 is, setting by setting: under setting [1], 0.0794 µM; under setting [2], 3.16 µM.

Take `Cl.[2H]C([2H])(C)Oc1ccc(F)c(-c2ccnc([C@H]3CC[C@@]4(CCN(C)C4=O)N3)c2)c1` [Example 254, (2R,5S)-2-[4-[5-(1,1-Dideuterioethoxy)-2-fluoro-phenyl]-2-pyridyl]-7-methyl-1,7-diazaspiro[4.4]nonan-6-one hydrochloride]: the IC50 reads like this: under setting [1], 6.31 µM; under setting [2], 50.1 µM.

For the compound `CC(Oc1ccc(F)c(-c2ccnc([C@H]3CC[C@@]4(CCN(C)C4=O)N3)c2)c1)C1CC1` (stereo partly drawn) [Example 255, (2R,5S)-2-[4-[5-(1-(Cyclopropyl)ethoxy)-2-fluoro-phenyl]-2-pyridyl]-7-methyl-1,7-diazaspiro[4.4]nonan-6-one hydrochloride], the IC50 is 10 µM under setting [1] and 100 µM under setting [2].

As for `CCC(=O)c1ccc(F)c(-c2ccnc([C@H]3CC[C@@]4(CCN(C)C4=O)N3)c2)c1` [Example 257, (2R,5S)-2-[4-(2-Fluoro-5-propanoyl-phenyl)-2-pyridyl]-7-methyl-1,7-diazaspiro[4.4]nonan-6-one hydrochloride], the IC50 was 63.1 µM under setting [1] and 2510 µM under setting [2].

With `CCn1ncc2cc(F)c(-c3ccnc([C@H]4CC[C@@]5(CCN(C)C5=O)N4)c3)cc21` [Example 258, (2R,5S)-2-[4-(1-Ethyl-5-fluoro-indazol-6-yl)-2-pyridyl]-7-methyl-1,7-diazaspiro[4.4]nonan-6-one hydrochloride], the IC50 was 31.6 µM under setting [1] and 39800 µM under setting [2].

For `CCn1cc2cc(F)c(-c3ccnc([C@H]4CC[C@@]5(CCN(C)C5=O)N4)c3)cc2n1` [Example 259, (2R,5S)-2-[4-(2-Ethyl-5-fluoro-indazol-6-yl)-2-pyridyl]-7-methyl-1,7-diazaspiro[4.4]nonan-6-one hydrochloride], the IC50 is 1260 µM under setting [1] and 158 µM under setting [2].
